Data: patent US20200338028A1, “BENZENESULFONAMIDE DERIVATIVES AND METHOD FOR MODULATING LIPID RAFT” (Gongwin Biopharm Co., Ltd., priority 2017, published 2020)
“Also recorded” adds a separate entry of the source. Where two headings read alike, the source gives them in different places.

How the values were obtained:
PC-3 cells = assay: colony formation (clonogenic) assay; assay type: cell-based, human; details: for IC50: Homo sapiens, PC-3, 240 h, 10 days, FIG. 4F, read-out: IC50, growth inhibition, colony formation assay
Experimental: To assay the anchorage-dependent clonogenic effect, each individual PC-3 and DU-145 cells (150 cells/well) were seeded in a 6-well plate. After a 10-day treatment with p-TSA, the cell colonies were rinsed with phosphate-buffered saline (PBS), stained with 0.4% (w/v) crystal violet dissolved in 20% methanol, and lysed by 50 mM sodium citrate dissolved in 50% ethanol. The absorbance was read at a wavelength of 595 nm.
To further substantiate the role of Akt, the Myr-Akt overexpressed PC-3 cells were prepared with the method shown as follows. The plasmid encoding Myr-Akt, an N-terminally myristoylation signal-attached Akt, was a gift from Professor Mien-Chie Hung (The University of Texas, M.D. Anderson Cancer Center). For transfection, PC-3 cells were seeded into 60-mm tissue culture dishes with 30% confluence and grown for 24 h to 50-60% confluence. Each dish was washed with serum-free Opti-MEM (Life Technologies), and 2 ml of the serum-free Opti-MEM was then added. Aliquots containing Myr-Akt expression vector or a control plasmid in serum-free Opti-MEM were transfected into cells using Lipofectamine 2000 (Invitrogen) following the manufacturer's instructions. After incubation for 6 h at 37° C., cells were washed with serum-free Opti-MEM and incubated in 10% FBS-containing RPMI-1640 medium for 48 h. The cells were treated with or without p-TSA and then the related analyses were performed. […] Furthermore, the functional rescue of Myr-Akt was determined. […] However, overexpression of Myr-Akt had minimal effect on p-TSA-induced cyclin D1 down-regulation.

[1] = tested on: PC-3-derived cancer xenografts; assay: in vivo anti-tumor xenograft model; set-up: species or system nude mice
Experimental: In vivo anti-tumor study was performed as follows. PC-3-derived cancer xenografts in nude mice were used as an in vivo model. The nude mice were subcutaneously injected with PC-3 cells (10^7 cell/mouse). The tumors were measured every day. When the tumors reached a volume of 100 mm^3, the mice were divided into two groups (n=8-10), and compound treatment was initiated. p-TSA was dissolved in 15% 1-methyl-2-pyrrolidone (NMP). Vehicle (15% NMP) or p-TSA was given intraperitoneally every other day. The length (1) and width (w) of the tumor were measured, and tumor volume was calculated as lw^2/2. The protocols of the in vivo study were approved by the Animal Care and Use Committee at National Taiwan University. All animal procedures and protocols were approved by AAALAC-accredited facility. Data were presented as mean±standard error of the mean (SEM) for the indicated number of separate experiments. The statistical analysis was performed using one way analysis of variance (ANOVA) for multiple sample sets. Single comparisons of appropriate groups were done with Student's t-test. P-values less than 0.05 are statistically considered significant.
The tumor xenograft in nude mice models after subcutaneously inoculated PC-3 cells was used to conduct in vivo efficacy evaluation of p-TSA. The operator was fully blinded to the experimental treatment. The initial intraperitoneal injection of 75 mg/kg p-TSA was given when the tumor reached a size of 100 mm^3 (p-TSA group 121±40 mm^3 v.s. control group 101±48 mm^3). First, the tumor growth inhibition treatment/control (T/C) ratio was used to quantify the treatment effect of p-TSA in the mouse xenograft model.

DU-145 cells = assay: SRB assay, anti-proliferative effect; assay type: cell-based; details: Homo sapiens; DU-145, SRB assay, FIG. 1A; read-out: IC50, inhibition of cell growth
Experimental: (§1) Two castration-resistant prostate cancer (CRPC) cell lines of PC-3 and DU-145 were cultured in RPMI 1640 medium with 5% FBS (v/v), penicillin (100 units/ml) and streptomycin (100 μg/ml). Cultures were maintained in a 37° C. incubator with 5% CO2, and adherent cultures were passaged using 0.05% trypsin-EDTA when they reached about 80% confluence. Prostate cells were from human tissue samples which were obtained following informed consent of the donors and after full review by the Ethics Review Committee at National Taiwan University Hospital. The prostate specimens were from males by transurethral resection of the prostate. All patients with prostatism histories were diagnosed to have benign prostate hyperplasia by rectal digital examination, transrectal sonography of prostate and urodynamic studies. […] SRB assay is an accurate and reproducible assay based upon quantitative SRB staining of cellular proteins, and the process for SRB assay was performed as follows. […] The absorbance of SRB was measured at a wavelength of 515 nm at the time of p-TSA addition (hereinafter referred to as time zero, TZ), and after additional incubation of DMSO (hereinafter referred to as control growth, CTL) or p-TSA (hereinafter referred to as Tx). The percentage of cell growth inhibition was calculated by the formula of [1−(Tx−TZ)/(CTL−TZ)]×100%. […]

normal prostate cells = assay: SRB assay, anti-proliferative effect; assay type: cell-based, human; details: primary prostate cells, compared with CRPC cells, FIG. 1A
Experimental: as §1

`Cc1ccc(S(N)(=O)=O)cc1` [p-TSA, para-toluenesulfonamide] was tested, and the IC50 (PC-3 cells; PC-3 overexpressing constitutively active Myr-Akt) was 680 ± 20 µM, the IC50 (PC-3 cells; PC-3 without Myr-Akt overexpression) was 580 ± 20 µM and the “anti-proliferative effect, clonogenic assay” value (PC-3 cells; PC-3, 10 days, FIG. 1B) was “long-term anti-proliferative effect”. For the same molecule, the median tumor size ([1]; 75 mg/kg intraperitoneally) was 403 mm^3, the “tumor growth inhibition treatment/control (T/C) ratio” value ([1]; 75 mg/kg intraperitoneally every other day, end of treatment, FIG. 7A) was 0.44 and the tumor growth rate ([1]; 75 mg/kg intraperitoneally, FIG. 7B) was 16.8 mm^3/day. For the same molecule, the “loss of body weight versus control group” value ([1]; 75 mg/kg intraperitoneally, FIG. 7C) was “no significant between-group difference”, the “inhibition by median tumor size” value ([1]; 75 mg/kg intraperitoneally, versus 765 mm^3 in the control group) was 47% and the “inhibition of tumor growth rate” value ([1]; 75 mg/kg intraperitoneally, versus control group 37.8 mm^3/day) was 56%. The “day on which the group reached a 20% loss of body weight” value ([1]; 75 mg/kg intraperitoneally, control group 12th day) was 22 days, the “p-Akt expression in tumors” value ([1]; six randomly selected tumors, FIG. 7D, listed as PTS) was “significant inhibitory effect; also recorded: significantly inhibited” and the IC50 (DU-145 cells) was ~3000 µM. The “anti-proliferative activity in normal prostate cells” value (normal prostate cells) was “lower anti-proliferative activity”.
